What was measured:
Experiment in all cases: EC50 assay: Ba/F3 stable cell proliferation (CCK-8, 72 h)
Type in all cases: cell-based
Ba/F3 stable cells [1] = molecular target: T1, Ba/F3 stable cells (Homo sapiens, UniProt P00533, INS763FQEA, cells depend on it); settings: Ba/F3-EGFR A763-Y764insFQEA cells
T1 construct: EC50 Ba/F3-EGFR A763-Y764insFQEA; other: Ba/F3-EGFR A763-Y764insFQEA cells, 72 h, CCK-8
Procedure, shortened: (§1)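 Ba/F3 stable cells were seeded at 4,000 cells/90 μL/well in 96-well plates and held 2 h at 37° C. in 5% CO2, then given 10 μL of serially titrated compound (0.1% DMSO final). After 72 h at 37° C., CCK-8 reagent was added for 4 hours and absorbance read at 450 nm to derive EC50.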

Ba/F3 stable cells [2] = molecular target: T2, Ba/F3 stable cells (Homo sapiens, UniProt P00533, T790M/L858R, cells depend on it); settings: Ba/F3-EGFR L858R-T790M cells
T2 construct: EC50 Ba/F3-EGFR L858R-T790M; other: Ba/F3-EGFR L858R-T790M cells, 72 h, CCK-8
Procedure, shortened: as §1

Ba/F3 stable cells [3] = molecular target: T3, Ba/F3 stable cells (Homo sapiens, UniProt P04626, DUP772-775, cells depend on it); settings: Ba/F3-HER2 A775-G776insYVMA cells
T3 construct: EC50 Ba/F3-HER2 A775-G776insYVMA; other: Ba/F3-HER2 A775-G776insYVMA cells, 72 h, CCK-8
Procedure, shortened: as §1

Ba/F3 stable cells [4] = molecular target: T4, Ba/F3 stable cells (Homo sapiens, UniProt P00533, DUP768-770, cells depend on it); settings: Ba/F3-EGFR D770-N771insSVD cells
T4 construct: EC50 Ba/F3-EGFR D770-N771insSVD; other: Ba/F3-EGFR D770-N771insSVD cells, 72 h, CCK-8
T4 sequence (P00533 with tags, fused parts or gaps DUP768-770): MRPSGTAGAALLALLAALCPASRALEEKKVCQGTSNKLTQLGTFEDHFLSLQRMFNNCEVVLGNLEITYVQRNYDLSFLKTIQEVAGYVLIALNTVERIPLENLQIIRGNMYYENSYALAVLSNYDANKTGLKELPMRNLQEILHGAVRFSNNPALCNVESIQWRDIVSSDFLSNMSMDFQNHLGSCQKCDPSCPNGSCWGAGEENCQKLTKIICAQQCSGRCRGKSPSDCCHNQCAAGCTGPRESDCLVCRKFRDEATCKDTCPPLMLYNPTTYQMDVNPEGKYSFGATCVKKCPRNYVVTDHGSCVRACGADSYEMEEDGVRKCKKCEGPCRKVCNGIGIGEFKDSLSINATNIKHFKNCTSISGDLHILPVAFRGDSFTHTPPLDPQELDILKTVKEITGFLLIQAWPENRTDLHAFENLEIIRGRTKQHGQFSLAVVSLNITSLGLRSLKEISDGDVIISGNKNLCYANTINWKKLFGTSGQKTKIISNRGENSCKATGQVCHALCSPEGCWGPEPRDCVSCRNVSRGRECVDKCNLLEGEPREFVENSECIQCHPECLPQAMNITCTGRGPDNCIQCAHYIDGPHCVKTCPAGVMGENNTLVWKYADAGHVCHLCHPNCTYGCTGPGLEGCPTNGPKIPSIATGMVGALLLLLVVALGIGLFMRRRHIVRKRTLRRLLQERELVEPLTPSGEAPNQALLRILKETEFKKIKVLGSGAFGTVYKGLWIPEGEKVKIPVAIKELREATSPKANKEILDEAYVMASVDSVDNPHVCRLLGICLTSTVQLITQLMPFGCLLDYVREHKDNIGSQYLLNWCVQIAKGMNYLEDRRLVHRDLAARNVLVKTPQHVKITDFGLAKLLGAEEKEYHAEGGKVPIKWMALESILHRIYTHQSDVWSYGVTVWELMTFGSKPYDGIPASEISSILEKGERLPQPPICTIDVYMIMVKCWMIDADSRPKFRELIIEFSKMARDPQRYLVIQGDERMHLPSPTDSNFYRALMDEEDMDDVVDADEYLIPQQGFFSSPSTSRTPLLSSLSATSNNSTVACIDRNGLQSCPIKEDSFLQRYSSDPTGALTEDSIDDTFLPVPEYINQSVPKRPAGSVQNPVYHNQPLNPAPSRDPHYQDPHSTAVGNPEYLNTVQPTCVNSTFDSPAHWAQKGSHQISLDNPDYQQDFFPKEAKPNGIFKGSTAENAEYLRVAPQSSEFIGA
Procedure, shortened: as §1

Ba/F3 stable cells [5] = molecular target: T5, Ba/F3 stable cells (Homo sapiens, UniProt P00533, DUP767-769, cells depend on it); settings: Ba/F3-EGFR V769-D770insASV cells
T5 construct: EC50 Ba/F3-EGFR V769-D770insASV; other: Ba/F3-EGFR V769-D770insASV cells, 72 h, CCK-8
T5 sequence (P00533 with tags, fused parts or gaps DUP767-769): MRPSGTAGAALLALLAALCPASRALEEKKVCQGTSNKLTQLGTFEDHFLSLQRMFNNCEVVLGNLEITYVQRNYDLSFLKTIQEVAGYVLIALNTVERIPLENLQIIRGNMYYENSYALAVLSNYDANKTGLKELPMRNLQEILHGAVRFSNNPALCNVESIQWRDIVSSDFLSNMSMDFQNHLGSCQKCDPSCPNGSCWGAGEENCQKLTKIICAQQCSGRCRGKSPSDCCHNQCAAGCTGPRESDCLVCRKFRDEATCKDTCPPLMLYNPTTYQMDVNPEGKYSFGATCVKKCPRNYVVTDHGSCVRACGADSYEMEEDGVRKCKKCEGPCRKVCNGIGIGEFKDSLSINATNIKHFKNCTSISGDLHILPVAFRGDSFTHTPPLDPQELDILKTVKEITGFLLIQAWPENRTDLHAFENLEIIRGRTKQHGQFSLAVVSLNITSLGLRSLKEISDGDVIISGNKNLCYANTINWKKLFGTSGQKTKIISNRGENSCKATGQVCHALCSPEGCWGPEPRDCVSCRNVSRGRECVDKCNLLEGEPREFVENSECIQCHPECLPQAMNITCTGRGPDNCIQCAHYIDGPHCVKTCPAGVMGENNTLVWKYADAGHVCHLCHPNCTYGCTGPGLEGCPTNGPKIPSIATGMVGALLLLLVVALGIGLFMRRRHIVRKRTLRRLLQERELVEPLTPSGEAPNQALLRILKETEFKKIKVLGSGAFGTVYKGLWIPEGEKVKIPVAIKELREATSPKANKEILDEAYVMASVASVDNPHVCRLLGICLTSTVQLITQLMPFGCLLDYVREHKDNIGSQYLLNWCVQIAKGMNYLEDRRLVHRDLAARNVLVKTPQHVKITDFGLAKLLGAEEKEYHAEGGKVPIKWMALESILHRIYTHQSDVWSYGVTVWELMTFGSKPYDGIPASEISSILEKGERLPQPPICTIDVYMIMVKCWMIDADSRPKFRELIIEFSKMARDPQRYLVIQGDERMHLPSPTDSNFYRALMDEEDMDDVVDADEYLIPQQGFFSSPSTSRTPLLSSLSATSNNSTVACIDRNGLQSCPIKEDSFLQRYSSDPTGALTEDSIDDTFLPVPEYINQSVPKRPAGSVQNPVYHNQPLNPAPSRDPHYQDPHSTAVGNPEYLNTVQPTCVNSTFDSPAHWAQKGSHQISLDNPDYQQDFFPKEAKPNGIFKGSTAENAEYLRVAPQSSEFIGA
Procedure, shortened: as §1

Ba/F3 stable cells [6] = molecular target: T6, Ba/F3 stable cells (Homo sapiens, UniProt P00533, DUP771-773, cells depend on it); settings: Ba/F3-EGFR H773-V774insNPH cells
T6 construct: EC50 Ba/F3-EGFR H773-V774insNPH; other: Ba/F3-EGFR H773-V774insNPH cells, 72 h, CCK-8
T6 sequence (P00533 with tags, fused parts or gaps DUP771-773): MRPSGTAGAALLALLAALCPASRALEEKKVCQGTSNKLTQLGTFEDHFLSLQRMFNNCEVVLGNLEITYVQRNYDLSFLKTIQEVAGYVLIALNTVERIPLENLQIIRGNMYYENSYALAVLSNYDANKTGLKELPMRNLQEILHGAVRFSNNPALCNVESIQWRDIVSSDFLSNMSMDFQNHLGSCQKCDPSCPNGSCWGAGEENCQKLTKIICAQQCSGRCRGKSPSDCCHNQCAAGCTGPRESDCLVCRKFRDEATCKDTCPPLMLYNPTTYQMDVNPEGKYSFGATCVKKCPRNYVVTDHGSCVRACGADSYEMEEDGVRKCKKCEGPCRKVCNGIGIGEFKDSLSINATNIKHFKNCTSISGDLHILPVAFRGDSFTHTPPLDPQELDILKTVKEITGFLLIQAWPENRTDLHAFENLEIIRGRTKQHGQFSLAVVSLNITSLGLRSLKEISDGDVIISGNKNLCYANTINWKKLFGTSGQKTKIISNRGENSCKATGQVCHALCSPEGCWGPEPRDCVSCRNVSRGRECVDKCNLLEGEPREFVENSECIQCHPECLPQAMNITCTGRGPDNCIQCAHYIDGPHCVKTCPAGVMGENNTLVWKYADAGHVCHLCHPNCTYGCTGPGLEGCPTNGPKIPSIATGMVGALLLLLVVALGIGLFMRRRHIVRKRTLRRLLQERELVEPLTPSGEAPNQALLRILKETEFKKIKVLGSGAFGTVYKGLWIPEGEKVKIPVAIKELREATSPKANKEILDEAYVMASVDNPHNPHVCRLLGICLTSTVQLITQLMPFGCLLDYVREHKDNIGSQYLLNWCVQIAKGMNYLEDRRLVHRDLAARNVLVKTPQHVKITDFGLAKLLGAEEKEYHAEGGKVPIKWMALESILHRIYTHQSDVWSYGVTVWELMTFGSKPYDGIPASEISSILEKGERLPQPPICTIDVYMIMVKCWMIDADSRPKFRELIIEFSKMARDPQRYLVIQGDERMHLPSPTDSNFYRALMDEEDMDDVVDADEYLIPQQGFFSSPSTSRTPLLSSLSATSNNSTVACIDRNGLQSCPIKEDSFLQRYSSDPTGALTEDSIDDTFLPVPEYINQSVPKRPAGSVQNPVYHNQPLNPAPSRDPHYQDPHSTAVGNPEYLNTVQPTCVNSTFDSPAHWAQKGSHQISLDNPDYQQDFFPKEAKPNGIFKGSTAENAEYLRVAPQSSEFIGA
Procedure, shortened: as §1

T1 sequence (P00533 with tags, fused parts or gaps INS763FQEA): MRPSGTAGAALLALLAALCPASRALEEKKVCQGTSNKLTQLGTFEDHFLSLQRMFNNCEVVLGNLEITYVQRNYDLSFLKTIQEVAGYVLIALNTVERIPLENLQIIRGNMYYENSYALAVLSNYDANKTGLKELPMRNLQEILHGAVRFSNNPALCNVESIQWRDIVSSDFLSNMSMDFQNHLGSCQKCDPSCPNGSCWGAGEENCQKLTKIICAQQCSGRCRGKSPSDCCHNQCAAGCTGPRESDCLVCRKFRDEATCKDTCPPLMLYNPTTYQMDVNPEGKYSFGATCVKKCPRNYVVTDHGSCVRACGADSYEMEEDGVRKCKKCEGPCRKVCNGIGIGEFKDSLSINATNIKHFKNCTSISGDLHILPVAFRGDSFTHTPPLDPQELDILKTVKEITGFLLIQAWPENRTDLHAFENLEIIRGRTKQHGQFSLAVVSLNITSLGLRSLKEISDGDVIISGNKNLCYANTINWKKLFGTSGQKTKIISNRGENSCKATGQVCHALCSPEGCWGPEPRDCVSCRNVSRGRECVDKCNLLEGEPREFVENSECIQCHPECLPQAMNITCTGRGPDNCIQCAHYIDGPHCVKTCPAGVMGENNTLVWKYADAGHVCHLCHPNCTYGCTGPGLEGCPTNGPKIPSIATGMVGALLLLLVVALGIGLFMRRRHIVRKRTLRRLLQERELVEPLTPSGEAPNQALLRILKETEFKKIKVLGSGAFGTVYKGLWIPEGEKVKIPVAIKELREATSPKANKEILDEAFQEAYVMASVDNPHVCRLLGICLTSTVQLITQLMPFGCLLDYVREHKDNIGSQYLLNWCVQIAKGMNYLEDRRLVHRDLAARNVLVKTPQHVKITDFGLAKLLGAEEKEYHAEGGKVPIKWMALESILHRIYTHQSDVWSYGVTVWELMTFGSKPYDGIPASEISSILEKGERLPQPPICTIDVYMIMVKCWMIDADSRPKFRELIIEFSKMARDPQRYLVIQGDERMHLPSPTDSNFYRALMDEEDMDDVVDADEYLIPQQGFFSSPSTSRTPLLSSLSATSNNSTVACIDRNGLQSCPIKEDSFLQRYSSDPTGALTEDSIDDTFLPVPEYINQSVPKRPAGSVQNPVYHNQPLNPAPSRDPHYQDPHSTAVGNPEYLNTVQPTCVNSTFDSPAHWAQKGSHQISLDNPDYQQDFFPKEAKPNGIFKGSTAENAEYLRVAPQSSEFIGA

| Structure (SMILES) | EC50 (Ba/F3 stable cells [1]) [nM] | EC50 (Ba/F3 stable cells [2]) [nM] | EC50 (Ba/F3 stable cells [3]) [nM] | EC50 (Ba/F3 stable cells [4]) [nM] | EC50 (Ba/F3 stable cells [5]) [nM] | EC50 (Ba/F3 stable cells [6]) [nM] |
| --- | --- | --- | --- | --- | --- | --- |
| C=CC(=O)N[C@H]1CC[C@H](Oc2cc3c(Nc4ccc(Cl)c(Cl)c4F)ncnc3cc2OC)CC1 [Compound 91, N-((1r,4r)-4-((4-((3,4-dichloro-2-fluorophenyl)amino)-7-methoxyquinazolin-6-yl)oxy)cyclohexyl)acrylamide] | ≤ 200 | > 1000 | 200 to 1000 | 200 to 1000 | 200 to 1000 | 200 to 1000 |
| C=CC(=O)N1CCC(Oc2cc3c(NCc4ccc(Cl)c(Cl)c4)ncnc3cc2OC)CC1 [Compound 115, 1-(4-((4-((3,4-dichlorobenzyl)amino)-7-methoxyquinazolin-6-yl)oxy)piperidin-1-yl)prop-2-en-1-one] | ≤ 200 | 200 to 1000 | ≤ 200 | > 1000 | > 1000 | > 1000 |
| C=CC(=O)N1CC(c2cc3c(Nc4ccc(F)c(Cl)c4)ncnc3cc2OC)C1 [Compound 6, 1-(3-(4-((3-chloro-4-fluorophenyl)amino)-7-methoxyquinazolin-6-yl)azetidin-1-yl)prop-2-en-1-one] | ≤ 200 | 200 to 1000 | ≤ 200 | 200 to 1000 | ≤ 200 | ≤ 200 |
| C=CC(=O)N1CCC(Oc2cc3c(NCc4ccc(Cl)c(F)c4)ncnc3cc2OC)CC1 [Compound 113, 1-(4-((4-((4-chloro-3-fluorobenzyl)amino)-7-methoxyquinazolin-6-yl)oxy)piperidin-1-yl)prop-2-en-1-one] | ≤ 200 | > 1000 | ≤ 200 | > 1000 | 200 to 1000 | 200 to 1000 |
| C=CC(=O)N[C@H]1C[C@H](Oc2cc3c(Nc4ccc(C#N)c(Cl)c4)ncnc3cc2OC)C1 [Compound 86, N-(3-((4-((3-chloro-4-cyanophenyl)amino)-7-methoxyquinazolin-6-yl)oxy)cyclobutyl)acrylamide] | 200 to 1000 | > 1000 | > 1000 | > 1000 | > 1000 | > 1000 |
| C=CC(=O)NC1CC(Oc2cc3c(Nc4ccc(F)c5c4CCC5O)ncnc3cc2OC)C1 (stereo not drawn) [Compound 69, N-(3-((4-((7-fluoro-1-hydroxy-2,3-dihydro-1H-inden-4-yl)amino)-7-methoxyquinazolin-6-yl)oxy)cyclobutyl)acrylamide] | > 1000 | > 1000 | > 1000 | > 1000 | > 1000 | > 1000 |
| C=CC(=O)N1CCCC(c2cc3c(Nc4ccc(Cl)c(Cl)c4F)ncnc3cc2OC)C1 (stereo not drawn) [Compound 185, 1-(3-(4-((3,4-dichloro-2-fluorophenyl)amino)-7-methoxyquinazolin-6-yl)piperidin-1-yl)prop-2-en-1-one] | ≤ 200 | ≤ 200 | 200 to 1000 | 200 to 1000 | ≤ 200 | ≤ 200 |
| C=CC(=O)N1CC(c2cc3c(Nc4ccc(Cl)c(Cl)c4F)ncnc3cc2OCCN2CCN(C)CC2)C1 [Compound 21, 1-(3-(4-((3,4-dichloro-2-fluorophenyl)amino)-7-(2-(4-methylpiperazin-1-yl)ethoxy)quinazolin-6-yl)azetidin-1-yl)prop-2-en-1-one] | ≤ 200 | ≤ 200 | ≤ 200 | ≤ 200 | ≤ 200 | ≤ 200 |
| C=CC(=O)N1CCC(Oc2c(OC)cc3ncnc4c3c2NC(=O)N4c2ccc(Cl)c(Cl)c2F)C1 (stereo not drawn) [Compound 205, 9-((1-acryloylpyrrolidin-3-yl)oxy)-3-(3,4-dichloro-2-fluorophenyl)-8-methoxy-1H-pyrimido[4,5,6-de]quinazolin-2(3H)-one] | 200 to 1000 | > 1000 | > 1000 | > 1000 | > 1000 | > 1000 |
| C=CC(=O)N1CCC(Oc2cc3c(Nc4cccc5cccnc45)ncnc3cc2OC)CC1 [Compound 146, 1-(4-((7-methoxy-4-(quinolin-8-ylamino)quinazolin-6-yl)oxy)piperidin-1-yl)prop-2-en-1-one] | ≤ 200 | 200 to 1000 | 200 to 1000 | 200 to 1000 | ≤ 200 | 200 to 1000 |
| C=CC(=O)N1CCC(Oc2cc3c(NCc4cccc(C#N)c4)ncnc3cc2OC)CC1 [Compound 124, 3-(((6-((1-acryloylpiperidin-4-yl)oxy)-7-methoxyquinazolin-4-yl)amino)methyl)benzonitrile] | ≤ 200 | > 1000 | > 1000 | > 1000 | > 1000 | > 1000 |
| C#CC(=O)N1CCC=C(c2ccc3ncnc(Nc4ccc(Cl)c(Cl)c4F)c3c2)C1 [Compound 62, 1-(5-(4-((3,4-dichloro-2-fluorophenyl)amino)quinazolin-6-yl)-3,6-dihydropyridin-1(2H)-yl)prop-2-yn-1-one] | ≤ 200 | 200 to 1000 | 200 to 1000 | 200 to 1000 | 200 to 1000 | 200 to 1000 |
| C=CC(=O)NC1CC(Oc2cc3c(Nc4ccc(Cl)cc4F)ncnc3cc2OC)C1 (stereo not drawn) [Compound 78, N-(3-((4-((4-chloro-2-fluorophenyl)amino)-7-methoxyquinazolin-6-yl)oxy)cyclobutyl)acrylamide] | ≤ 200 | > 1000 | 200 to 1000 | > 1000 | ≤ 200 | 200 to 1000 |
| COc1cc2ncnc(Nc3ccc(Cl)c(Cl)c3F)c2cc1OC1CCCN(C#N)C1 (stereo not drawn) [Compound 198, 3-((4-((3,4-dichloro-2-fluorophenyl)amino)-7-methoxy-quinazolin-6-yl)oxy)piperidine-1-carbonitrile] | ≤ 200 | > 1000 | > 1000 | > 1000 | 200 to 1000 | 200 to 1000 |
| C=CC(=O)N1CCC(Oc2cc3c(Nc4ccc5c(c4)CCN5)ncnc3cc2OC)CC1 [Compound 168, 1-(4-((4-(indolin-5-ylamino)-7-methoxyquinazolin-6-yl)oxy)piperidin-1-yl)prop-2-en-1-one] | ≤ 200 | > 1000 | ≤ 200 | 200 to 1000 | ≤ 200 | ≤ 200 |
| C=CC(=O)NC1CC(Oc2cc3c(Nc4ccc5c(c4)CCCC5O)ncnc3cc2OC)C1 (stereo not drawn) [Compound 71, N-(3-((4-((5-hydroxy-5,6,7,8-tetrahydronaphthalen-2-yl)amino)-7-methoxyquinazolin-6-yl)oxy)cyclobutyl)acrylamide] | > 1000 | > 1000 | > 1000 | > 1000 | > 1000 | > 1000 |
| C#CC(=O)NC1CC(Oc2cc3c(Nc4cccc5ccccc45)ncnc3cc2OC)C1 (stereo not drawn) [Compound 46, N-(3-((7-methoxy-4-(naphthalen-1-ylamino)quinazolin-6-yl)oxy)cyclobutyl)propiolamide] | ≤ 200 | ≤ 200 | ≤ 200 | 200 to 1000 | ≤ 200 | ≤ 200 |
| C=CC(=O)N1CCC(Oc2cc3c(Nc4cccc5cn[nH]c45)ncnc3cc2OC)CC1 [Compound 139, 1-(4-((4-((1H-indazol-7-yl)amino)-7-methoxyquinazolin-6-yl)oxy)piperidin-1-yl)prop-2-en-1-one] | ≤ 200 | > 1000 | > 1000 | > 1000 | > 1000 | > 1000 |
| COc1cc2ncnc(Nc3ccc(Cl)c(Cl)c3F)c2cc1C1CN(C#N)C1 [Compound 195, 3-(4-((3,4-dichloro-2-fluorophenyl)amino)-7-methoxy-quinazolin-6-yl)azetidine-1-carbonitrile] | 200 to 1000 | 200 to 1000 | 200 to 1000 | > 1000 | > 1000 | > 1000 |
| C=CC(=O)N1CCC(Oc2c(OC)cc3ncnc4c3c2NC(=O)N4c2ccc(Cl)c(Cl)c2)CC1 [Compound 215, 9-((1-acryloylpiperidin-4-yl)oxy)-3-(3,4-dichlorophenyl)-8-methoxy-1H-pyrimido[4,5,6-de]quinazolin-2(3H)-one] | ≤ 200 | > 1000 | > 1000 | > 1000 | > 1000 | > 1000 |

Reference: patent publication US20250243171A1, “QUINAZOLINE COMPOUNDS FOR TREATMENT OF DISEASE” (Arthrosi Therapeutics, Inc., priority 2021, published 2025)
